Measurements reported in ChEMBL document CHEMBL5614428, “Synthesis and antibacterial activities of heterocyclic ring-fused 20(S)-protopanaxadiol derivatives” (Bioorg Med Chem, 2024).
In brackets after ≈: the same amount, converted by molar mass.

Legend:
Type in all cases: functional
Staphylococcus aureus [1] = assay: Antibacterial activity against methicillin-resistant Staphylococcus aureus NRS-100 assessed as inhibition of bacterial growth incubated for 18 hrs by two fold serial dilution assay
Staphylococcus aureus [2] = assay: Antibacterial activity against methicillin-resistant Staphylococcus aureus NRS-108 assessed as inhibition of bacterial growth incubated for 18 hrs by two fold serial dilution assay
Staphylococcus aureus [3] = assay: Antibacterial activity against methicillin-resistant Staphylococcus aureus XJ017 assessed as inhibition of bacterial growth incubated for 18 hrs by two fold serial dilution assay
Staphylococcus aureus [4] = assay: Antibacterial activity against methicillin-resistant Staphylococcus aureus XJ036 assessed as inhibition of bacterial growth incubated for 18 hrs by two fold serial dilution assay
Staphylococcus aureus [5] = assay: Antibacterial activity against methicillin-resistant Staphylococcus aureus NRS-70 assessed as inhibition of bacterial growth incubated for 18 hrs by two fold serial dilution assay
Staphylococcus aureus [6] = assay: Antibacterial activity against methicillin-resistant Staphylococcus aureus NRS-271 assessed as inhibition of bacterial growth incubated for 18 hrs by two fold serial dilution assay
Staphylococcus aureus [7] = assay: Antibacterial activity against Staphylococcus aureus Newman assessed as inhibition of bacterial growth incubated for 18 hrs by two fold serial dilution assay
Staphylococcus aureus [8] = assay: Antibacterial activity against methicillin-resistant Staphylococcus aureus USA300 assessed as inhibition of bacterial growth incubated for 18 hrs by two fold serial dilution assay
Staphylococcus aureus [9] = assay: Antibacterial activity against methicillin-resistant Staphylococcus aureus NRS-1 assessed as inhibition of bacterial growth incubated for 18 hrs by two fold serial dilution assay

SMILES | MIC (Staphylococcus aureus [1]) [µg/mL] | MIC (Staphylococcus aureus [2]) [µg/mL] | MIC (Staphylococcus aureus [3]) [µg/mL] | MIC (Staphylococcus aureus [4]) [µg/mL] | MIC (Staphylococcus aureus [5]) [µg/mL] | MIC (Staphylococcus aureus [6]) [µg/mL] | MIC (Staphylococcus aureus [7]) [µg/mL] | MIC (Staphylococcus aureus [8]) [µg/mL] | MIC (Staphylococcus aureus [9]) [µg/mL]
CC1(C)S[C@@H]2[C@H](NC(=O)[C@H](N)c3ccccc3)C(=O)N2[C@H]1C(=O)O [AMPICILLIN] | 0.063 (≈ 0.18 µM) | 2 (≈ 5.72 µM) | 32 (≈ 91.6 µM) | 8 (≈ 22.9 µM) | 8 (≈ 22.9 µM) | 4 (≈ 11.4 µM) |  |  | 
CC1(C)c2nc(N)ncc2C[C@]2(C)[C@H]3C[C@@H](O)[C@@H]4[C@@H]([C@@](C)(O)CCCO)CC[C@@]4(C)[C@]3(C)CC[C@@H]12 |  |  |  |  |  |  | 16 (≈ 32.9 µM) | 32 (≈ 65.9 µM) | 
CC1(C)c2ncncc2C[C@]2(C)[C@H]3C[C@@H](O)[C@@H]4[C@@H]([C@@](C)(O)CCCO)CC[C@@]4(C)[C@]3(C)CC[C@@H]12 |  |  |  |  |  |  | > 64 | > 64 | 
CC1(C)c2nc3ccccc3nc2C[C@]2(C)[C@H]3C[C@@H](O)[C@@H]4[C@@H]([C@@](C)(O)CCC(=O)Nc5ccc(C(F)(F)F)cc5)CC[C@@]4(C)[C@]3(C)CC[C@@H]12 |  |  |  |  |  |  | > 64 | > 64 | 
COc1ccc(NC(=O)CC[C@](C)(O)[C@H]2CC[C@]3(C)[C@@H]2[C@H](O)C[C@@H]2[C@@]4(C)Cc5nc6ccccc6nc5C(C)(C)[C@@H]4CC[C@]23C)cc1 |  |  |  |  |  |  | > 64 | > 64 | 
CC1(C)c2nc3ccccc3nc2C[C@]2(C)[C@H]3C[C@@H](O)[C@@H]4[C@@H]([C@@](C)(O)CCC(=O)Nc5ccccc5)CC[C@@]4(C)[C@]3(C)CC[C@@H]12 |  |  |  |  |  |  | > 64 | > 64 | 
Cc1nc2c(o1)C(C)(C)[C@@H]1CC[C@]3(C)[C@H](C[C@@H](O)[C@@H]4[C@@H]([C@@](C)(O)CCCO)CC[C@]43C)[C@@]1(C)C2 |  |  |  |  |  |  | > 64 | > 64 | 
CC1(C)c2nc3ccccc3nc2C[C@]2(C)[C@H]3C[C@@H](O)[C@@H]4[C@@H]([C@@](C)(O)CCC(=O)NC5CCCCC5)CC[C@@]4(C)[C@]3(C)CC[C@@H]12 |  |  |  |  |  |  | > 64 | > 64 | 
CC1(C)c2[nH]c3ccccc3c2C[C@]2(C)[C@H]3C[C@@H](O)[C@@H]4[C@@H]([C@@](C)(O)CCCO)CC[C@@]4(C)[C@]3(C)CC[C@@H]12 |  |  |  |  |  |  | 4 (≈ 7.88 µM) | 32 (≈ 63 µM) | 
CC1(C)c2nc3ccccc3nc2C[C@]2(C)[C@H]3C[C@@H](O)[C@@H]4[C@@H]([C@@](C)(O)CCCO)CC[C@@]4(C)[C@]3(C)CC[C@@H]12 |  |  |  |  |  |  | 4 (≈ 7.68 µM) | 8 (≈ 15.4 µM) | 
CC1(C)c2nc3ccccc3cc2C[C@]2(C)[C@H]3C[C@@H](O)[C@@H]4[C@@H]([C@@](C)(O)CCCO)CC[C@@]4(C)[C@]3(C)CC[C@@H]12 |  |  |  |  |  |  | 2 (≈ 3.85 µM) | > 64 | 
CC1(C)c2nc3ccccc3nc2C[C@]2(C)[C@H]3C[C@@H](O)[C@@H]4[C@@H]([C@@](C)(O)CCC(=O)Nc5ccc6ncsc6c5)CC[C@@]4(C)[C@]3(C)CC[C@@H]12 |  |  |  |  |  |  | > 64 | > 64 | 
CC1(C)c2nc3ccccc3nc2C[C@]2(C)[C@H]3C[C@@H](O)[C@@H]4[C@@H]([C@]5(C)CCC(=O)O5)CC[C@@]4(C)[C@]3(C)CC[C@@H]12 |  |  |  |  |  |  | 4 (≈ 7.74 µM) | 8 (≈ 15.5 µM) | 
CC1(C)c2nc3ccccc3nc2C[C@]2(C)[C@H]3C[C@@H](O)[C@@H]4[C@@H]([C@@](C)(O)CCC(=O)Nc5ncc[nH]5)CC[C@@]4(C)[C@]3(C)CC[C@@H]12 | 8 (≈ 13.3 µM) | 2 (≈ 3.33 µM) | 2 (≈ 3.33 µM) | 4 (≈ 6.67 µM) | 1 (≈ 1.67 µM) | 2 (≈ 3.33 µM) | 2 (≈ 3.33 µM) | 2 (≈ 3.33 µM) | 8 (≈ 13.3 µM)
CC1(C)c2oncc2C[C@]2(C)[C@H]3C[C@@H](O)[C@@H]4[C@@H]([C@@](C)(O)CCCO)CC[C@@]4(C)[C@]3(C)CC[C@@H]12 |  |  |  |  |  |  | > 64 | > 64 | 
CNC(=O)CC[C@](C)(O)[C@H]1CC[C@]2(C)[C@@H]1[C@H](O)C[C@@H]1[C@@]3(C)Cc4nc5ccccc5nc4C(C)(C)[C@@H]3CC[C@]12C | 8 (≈ 14.6 µM) | 4 (≈ 7.3 µM) | 16 (≈ 29.2 µM) | 8 (≈ 14.6 µM) | 4 (≈ 7.3 µM) | 8 (≈ 14.6 µM) | 4 (≈ 7.3 µM) | 4 (≈ 7.3 µM) | 4 (≈ 7.3 µM)

SMILES | MIC (Staphylococcus aureus [1]) [µg/mL] | MIC (Staphylococcus aureus [2]) [µg/mL] | MIC (Staphylococcus aureus [3]) [µg/mL] | MIC (Staphylococcus aureus [4]) [µg/mL] | MIC (Staphylococcus aureus [5]) [µg/mL] | MIC (Staphylococcus aureus [6]) [µg/mL] | MIC (Staphylococcus aureus [7]) [µg/mL] | MIC (Staphylococcus aureus [8]) [µg/mL] | MIC (Staphylococcus aureus [9]) [µg/mL]
COC(=O)CC[C@](C)(O)[C@H]1CC[C@]2(C)[C@@H]1[C@H](O)C[C@@H]1[C@@]3(C)Cc4nc5ccccc5nc4C(C)(C)[C@@H]3CC[C@]12C |  |  |  |  |  |  | > 64 | > 64 | 
CC1(C)c2nc3ccccc3nc2C[C@]2(C)[C@H]3C[C@@H](O)[C@@H]4[C@@H]([C@]5(C)CCCO5)CC[C@@]4(C)[C@]3(C)CC[C@@H]12 |  |  |  |  |  |  | > 64 | > 64 | 
CC1(C)c2nc3ccccc3nc2C[C@]2(C)[C@H]3C[C@@H](O)[C@@H]4[C@@H]([C@@](C)(O)CCC(=O)Nc5cccnc5)CC[C@@]4(C)[C@]3(C)CC[C@@H]12 | 8 (≈ 13.1 µM) | 8 (≈ 13.1 µM) | 16 (≈ 26.2 µM) | 4 (≈ 6.55 µM) | 8 (≈ 13.1 µM) | 16 (≈ 26.2 µM) | 2 (≈ 3.27 µM) | 4 (≈ 6.55 µM) | > 64
CN(C)C(=O)CC[C@](C)(O)[C@H]1CC[C@]2(C)[C@@H]1[C@H](O)C[C@@H]1[C@@]3(C)Cc4nc5ccccc5nc4C(C)(C)[C@@H]3CC[C@]12C | 8 (≈ 14.2 µM) | 4 (≈ 7.12 µM) | > 64 | 8 (≈ 14.2 µM) | 4 (≈ 7.12 µM) | 4 (≈ 7.12 µM) | 4 (≈ 7.12 µM) | 4 (≈ 7.12 µM) | 4 (≈ 7.12 µM)
CC1(C)c2nc3ccccc3nc2C[C@]2(C)[C@H]3C[C@@H](O)[C@@H]4[C@@H]([C@@](C)(O)CCC(=O)Nc5cnccn5)CC[C@@]4(C)[C@]3(C)CC[C@@H]12 | 4 (≈ 6.54 µM) | 4 (≈ 6.54 µM) | 16 (≈ 26.2 µM) | 4 (≈ 6.54 µM) | 4 (≈ 6.54 µM) | 8 (≈ 13.1 µM) | 2 (≈ 3.27 µM) | 2 (≈ 3.27 µM) | > 64
CC(C)=CCC[C@](C)(O)[C@H]1CC[C@]2(C)[C@@H]1[C@H](O)C[C@@H]1[C@@]3(C)Cc4nc5ccccc5nc4C(C)(C)[C@@H]3CC[C@]12C |  |  |  |  |  |  | > 64 | > 64 | 
CC1(C)c2nc3ccccc3nc2C[C@]2(C)[C@H]3C[C@@H](O)[C@@H]4[C@@H]([C@@](C)(O)CCC(=O)Nc5ccc6nccnc6c5)CC[C@@]4(C)[C@]3(C)CC[C@@H]12 |  |  |  |  |  |  | > 64 | > 64 | 
CC1(C)c2nccnc2C[C@]2(C)[C@H]3C[C@@H](O)[C@@H]4[C@@H]([C@@](C)(O)CCCO)CC[C@@]4(C)[C@]3(C)CC[C@@H]12 |  |  |  |  |  |  | > 64 | > 64 | 
CC1(C)c2nc3ccccc3nc2C[C@]2(C)[C@H]3C[C@@H](O)[C@@H]4[C@@H]([C@@](C)(O)CCC(=O)NC5CCCC5)CC[C@@]4(C)[C@]3(C)CC[C@@H]12 |  |  |  |  |  |  | > 64 | > 64 | 
CCCNC(=O)CC[C@](C)(O)[C@H]1CC[C@]2(C)[C@@H]1[C@H](O)C[C@@H]1[C@@]3(C)Cc4nc5ccccc5nc4C(C)(C)[C@@H]3CC[C@]12C |  |  |  |  |  |  | > 64 | > 64 | 
C[C@H]1COc2c(N3CCN(C)CC3)c(F)cc3c(=O)c(C(=O)O)cn1c23 [LEVOFLOXACIN ANHYDROUS] | 0.125 (≈ 0.346 µM) | 0.125 (≈ 0.346 µM) | 64 (≈ 177 µM) | 32 (≈ 88.6 µM) | 0.125 (≈ 0.346 µM) | 4 (≈ 11.1 µM) |  |  | 16 (≈ 44.3 µM)
CC1(C)c2c(cnc3cccn23)C[C@]2(C)[C@H]3C[C@@H](O)[C@@H]4[C@@H]([C@@](C)(O)CCCO)CC[C@@]4(C)[C@]3(C)CC[C@@H]12 |  |  |  |  |  |  | 4 (≈ 7.86 µM) | > 64 | 
CCNC(=O)CC[C@](C)(O)[C@H]1CC[C@]2(C)[C@@H]1[C@H](O)C[C@@H]1[C@@]3(C)Cc4nc5ccccc5nc4C(C)(C)[C@@H]3CC[C@]12C | 4 (≈ 7.12 µM) | 4 (≈ 7.12 µM) | 8 (≈ 14.2 µM) | 4 (≈ 7.12 µM) | 4 (≈ 7.12 µM) | 4 (≈ 7.12 µM) | 4 (≈ 7.12 µM) | 4 (≈ 7.12 µM) | > 64
CC1(C)c2nc3ccccc3nc2C[C@]2(C)[C@H]3C[C@@H](O)[C@@H]4[C@@H]([C@@](C)(O)CCC(=O)O)CC[C@@]4(C)[C@]3(C)CC[C@@H]12 |  |  |  |  |  |  | 16 (≈ 29.9 µM) | 16 (≈ 29.9 µM) | 
CC1(C)c2nc(N)sc2C[C@]2(C)[C@H]3C[C@@H](O)[C@@H]4[C@@H]([C@@](C)(O)CCCO)CC[C@@]4(C)[C@]3(C)CC[C@@H]12 |  |  |  |  |  |  | 16 (≈ 32.6 µM) | > 64 | 
CCCCNC(=O)CC[C@](C)(O)[C@H]1CC[C@]2(C)[C@@H]1[C@H](O)C[C@@H]1[C@@]3(C)Cc4nc5ccccc5nc4C(C)(C)[C@@H]3CC[C@]12C |  |  |  |  |  |  | > 64 | > 64 | 
